Biological target: T1, PL3
T1 construct: gene pal
Conditions: read-out: apparent half-dissociation constant; 20 mM sodium phosphate, reducing conditions (pH 6.8 in the other assays); 20 °C; higher-affinity sites of a two-sigmoid fit (midpoint value); lower-affinity sites not listed

Kd: 60 ± 9 µM
SMILES: C[N+](C)(C)CCO [choline]

— paper PMC4963390, “PL3 Amidase, a Tailor-made Lysin Constructed by Domain Shuﬄing with Potent Killing Activity against Pneumococci and Related Species” (Frontiers in Microbiology, 2016)
